Melting point data for 88 compounds are collected here from a melting point compilation (Tetko et al.; mined from patent text by program, amines drawn as free bases though some values may be those of a salt).

For the compound `COc1cc(C(C)C(=O)NCC(COC(=O)C(C)(C)C)Cc2ccc(C)c(C)c2)ccc1NS(C)(=O)=O` (stereo not drawn), the melting point (usually the temperature, or range, at which the solid turns liquid) was in the range of 54 to 57 °C.
With `O=S1(=O)CCON=C1c1c(Cl)cccc1Cl` the figure was 180 to 182 °C; with `Cc1cc(Cl)cc(C(=O)NC(C)C)c1NC(=O)c1cc(Br)nn1-c1ncccc1Cl`, 159 to 161 °C; with `CCOC(=O)NNc1nc2ccc(-n3ccnc3)cc2n(OCc2ccccc2)c1=O`, 197 to 199 °C.
With `CCCCOc1c(CNC(=O)OC(C)(C)C)n(CC(C)C)c(=O)c2ccc(NC(=O)OCC3c4ccccc4-c4ccccc43)cc12` the figure was 137 to 138 °C; with `Nc1cc(Oc2ccc(Oc3cc(N)cc(C(F)(F)F)c3)c(C(F)(F)F)c2)cc(C(F)(F)F)c1`, 82 to 84 °C; with `CC(C)N(CCON=C1c2ccccc2C2CC2c2ccccc21)C(C)C` (stereo not drawn), 97 to 98 °C.
For the compound `CCOC(=O)c1ccc(C(=O)Nc2ccc3c(c2)CCCC(=O)N3C)cc1`, the melting point lay in the range of 184 to 185 °C.
In turn, `CC(C)(C)OC(=O)NC1Cc2ccccc2C1Oc1ccccc1` (stereo not drawn) displayed a melting point of 99 to 101 °C.
On to `C=C(C)CO[C@H]1[C@H](C)OC(=O)[C@@H](NC(=O)c2nccc(OC)c2OCOC(C)=O)COC(=O)[C@@H]1Cc1ccccc1`, for which the melting point lay in the range of 102 to 104 °C.
With `O=c1[nH]nccc1-c1ccccc1OC(F)(F)C(F)F` the figure was 178 °C; with `CC1CCCN1Cc1ccc(N/C=C2\C(=O)NC(=O)c3ccc(I)cc32)cc1` (stereo not drawn), 157 to 158 °C; with `CS(=O)c1ccc(-c2coc3ccc(-c4nnc(O)o4)cc23)cc1` (stereo not drawn), 234 to 237 °C.
With `CCn1nc2c(N)nc3ncccc3c2c1CC(C)C` the figure was 273 to 276 °C.
With `COn1c(C#N)c(C#N)c(Br)c1-c1ccc(Cl)cc1` the figure was 166 to 167 °C.
In the case of `CCCCCCC(C)(C)c1cc(O)c(C2=C(CO)CCC(C)C2)c(O)c1` (stereo not drawn), the melting point was in the range of 155 to 156 °C.
For `CCCn1cc(C(=O)O)c(=O)c2cnc(N3CCN(C)CC3)nc21` the value was 254 to 257 °C; for `CCCCc1c(C(=O)OCC)cc(Oc2nnnn2-c2ccccc2)c2ccc(OC)cc12`, 94 to 96 °C; for `CCCCN(C(=O)c1cnc(N2CC(C)(C)NC2=O)nc1N)c1cccc(C(F)(F)F)c1`, 154 to 155 °C.
For `CC(=O)SCC(=Cc1cccc2ccccc12)C(=O)NCCC(=O)OCc1ccccc1` the value was 78 °C; for `CC(C)(C)[C@H](NC(=O)[C@@H](CC(=O)OCc1ccccc1)n1ccc(-c2ccc(-c3ccc(C#N)cc3)cc2)c1)C(=O)Nc1ccncc1`, 115 to 116 °C; for `O=C(O)CCCCCCCCCCCc1ccccc1`, 47 to 48 °C.
With `CCc1ccc(C(=O)N[C@@H]2CCc3cccc(N4CCN(C)CC4)c3C2)cc1` the figure was 177 to 178 °C.
In turn, `CCCc1nc2sc3c(NCc4cccnc4)ncnc3c2c2c1COC(C)(C)C2` showed a melting point of 259 to 260 °C.
Compound `COCc1nc(N)nc(N)c1-c1cccc(Cl)c1Cl` showed a melting point of 237 to 240 °C.
For `CCCCCCCOc1ccc(COc2ccc3c(c2)CC(CC(=O)O)C3OC)cc1` (stereo not drawn) the value was 80 to 82 °C; for `CC(C)Nc1c(-c2ccc(S(C)(=O)=O)cc2)cnn(CC(F)(F)F)c1=O`, 173 to 174 °C; for `COC(=O)c1ccccc1OS(=O)(=O)N(C)C`, 75.5 to 76.5 °C.
For `Oc1ccc(C2(O)CCC3CN(Cc4ccccc4)CCC3C2)cc1` (stereo not drawn) the value was 108 to 109 °C; for `Cn1ccc2cc(N3Cc4ccc(OC(F)(F)C(F)Cl)cc4C3=O)ccc21` (stereo not drawn), 200 to 205 °C.
As for `O=C(C#CCN1C(=O)c2ccccc2C1=O)Nc1nnc(SCc2ccccc2)s1`, the melting point fell in the range of 128 to 131 °C.
`CC(=O)c1nn(C)c2ccccc12` gave a melting point of 86 to 88 °C.
With `CCOC(=O)c1ccc(C)c(NC(=O)C2=C(C)OCCS2)c1` the figure was 105 to 107 °C; with `Cc1ccc(C(=O)N[C@H](Cc2ccc(C(F)(F)F)cc2)[C@@H](O)c2ccc(F)cc2)c2ccccc12` (racemic), 198 to 199 °C.
For `CC(C)CCn1c(=O)c(=NNc2ccccc2)c(=O)n(-c2ccccc2F)c2ccccc21` the value was 104 to 105 °C; for `C=C(C)C(=O)Oc1ccccc1NS(C)(=O)=O`, 88 to 90 °C.
As for `OC(Cn1cncn1)(c1ccccc1)C1OC1c1ccccc1Cl` (stereo not drawn), the melting point lay within 180 to 182 °C.
With `COc1ccc(C(=NO)c2ccc(Cl)cc2)c(O)c1` the figure was 159 °C; with `Nc1ccc(N2CCN(c3ccccc3OCC3COC(Cn4cncn4)(c4ccc(Cl)cc4Cl)O3)CC2)cc1` (stereo not drawn), 187 °C.
In turn, `Cc1cc(C(N)=O)ncc1C(c1c(F)ccc(F)c1F)S(=O)(=O)CCC(F)F` (stereo not drawn) had a melting point of 192 °C.
With `CC(=O)NCCN1CCN(c2cccccc2=O)CC1` the figure was 117 to 118 °C; with `CN1C2CCC1C(CO)C(c1ccc(I)cc1)C2` (stereo not drawn), 90 to 92 °C.
With `CN(CCOc1ccc(CON=C(C(=O)O)c2ccccc2)cc1)c1ccccn1` the figure was 93 to 94 °C; with `CCOC(=O)Cc1c(C)n(-c2ncnc3ccccc23)c2ccc(OC)cc12`, 121 to 123 °C.
`O=C(NCCOC1CCCCO1)c1cc([N+](=O)[O-])cc([N+](=O)[O-])c1N(CCO)CCCl` (stereo not drawn) returned a melting point of 106 to 108 °C.
For `CC(=O)NCC1CN(C(c2ccccc2)c2ccccc2)C1` the value was 117 to 119 °C; for `Cc1ccccc1C(=O)c1ccc(Nc2ccccc2NS(=O)(=O)c2ccccc2)cc1Cl`, 211 to 215 °C; for `Cn1c(C(F)(F)F)cc(=O)n(-c2c(F)cc(Cl)c3nc(C(Br)Br)oc23)c1=O`, 144 to 146 °C.
With `Cc1nc2c(Br)cnn2c(Cl)c1CCCl` the figure was 128 to 130 °C.
Regarding `COc1cccc2c(=O)cc(C=Cc3ccc(C#N)cc3)oc12`, the melting point was in the range of 274 to 275 °C.
The compound `COc1cc(CN2CCN(C)CC2C2=NCCN2)cc(OC)c1OC` (stereo not drawn) registered a melting point of 185 to 187 °C.
Regarding `CCCCC(=O)c1c(-c2ccc3c(Br)c(OCC#N)ccc3c2)oc2ccccc12`, the melting point was in the range of 98 to 100 °C.
With `C=CCn1cnc2c1c(=O)n(CCC(C)C(C)=O)c(=O)n2C` (stereo not drawn) the figure was 73 to 74 °C.
In turn, `COc1ccc(C2CCCC(=O)O2)cc1` (stereo not drawn) showed a melting point of 57.5 to 59.5 °C.
With `O=C(O)c1cc([N+](=O)[O-])cs1` the figure was 110 to 118 °C; with `CCNC(CC)c1ccc(Cl)c2nc3n(c12)CCCN3c1ccc(Cl)cc1Cl` (stereo not drawn), 124 to 127 °C; with `Nc1sc2c(c1C(=O)c1cc3ccccc3o1)CCN(Cc1ccccc1)C2`, 83 to 87 °C.
`Cc1c(O)c(=O)ccn1CCCCO`: the melting point was 126 to 128 °C.
For `O=[N+]([O-])c1ccc(Cl)cc1NC1CCN(Cc2ccccc2)CC1` the value was 84 °C.
Take `Cc1nc(CCOCCCCCCNCC(O)c2cc(Cl)c(N)c(Cl)c2)cs1` (stereo not drawn): the melting point was 67 to 69 °C.
With `COC1=CC(=O)C2=C(CC=CC2)C1=O` the figure was 172 °C; with `CC(=O)OC(C)(N=NC(C)(OC(C)=O)C(C)C)C(C)C` (stereo not drawn), 55 to 62 °C.
For `COCC(=O)C(=NNc1ccc(I)cc1F)C(=O)OC` the value was 141 to 146 °C; for `N#Cc1c(Cl)nc(Cl)nc1N1CCSCC1`, 180 °C.
With `CCc1cccc2c1CCN([C@@H]1CN3CCC1CC3)C2=O`, the melting point is above 290 °C.
With `Clc1ccc(C2CN3C(=N2)Sc2ccccc23)cc1` (stereo not drawn) the figure was 143 °C.
For `CCn1ncc2c1ncc1c(SC)nc3ncnn3c12` the value was 198 to 200 °C; for `CCCSc1sc(C(=O)N2CCCC2)c2c1C(=O)CC(C)(C)C2`, 117 to 119 °C; for `O=C1CCc2ccc(O)c(c2)Oc2ccc(cc2)C2OC2CO1` (stereo not drawn), 180 to 181 °C.
`Cc1ccc(N[C@H](Cc2c[nH]c3ccccc23)C(=O)O)cc1` came in with a melting point of 146 to 148 °C.
For `CS(=O)(=O)N1CCN(CCC(CS(=O)(=O)c2ccc(Oc3ccc(OC(F)(F)F)cc3)cc2)N(O)C=O)CC1` (stereo not drawn), the melting point is 166 to 167 °C.
With `CC1SC(N2N=C(c3ccc([N+](=O)[O-])cc3)c3cc4c(cc3CC2C)OCO4)=NC1=O` (stereo not drawn) the figure was 213 to 214 °C; with `CCC1(CCCCN2CCN(c3ccccc3Cl)CC2)C(=O)Nc2ccccc21` (stereo not drawn), 145 to 148 °C; with `NS(=O)(=O)c1cccc(NC(=O)c2cnn3c(C(F)(F)F)cc(-c4ccc(C(F)(F)F)c(OCC(F)(F)F)c4)nc23)c1`, 233 °C.
`Clc1ccc(C2(Cn3ccnc3)OC2c2ccc(Cl)cc2Cl)cc1` (stereo not drawn) yielded a melting point of 102 to 103 °C.
The compound `CC(C)(C)CC(=O)c1c(-c2ccc3cc(OCC(=O)O)ccc3c2)oc2ccccc12` displayed a melting point of 207 to 209 °C.
For `N#Cc1ncc(Cl)nc1Br` the value was 66 to 67 °C; for `CC[C@@H](c1ccccc1)N(Cc1ccc(C(=O)OC)cc1)S(=O)(=O)c1ccc(Cl)cc1`, 108 to 110 °C; for `CC1(C)CC(=O)C(C(=O)Nc2cccc(Cl)c2)C(=O)C1`, 89 to 91 °C.
With `COC(=O)C1=C(c2ccc3c(c2)OCO3)c2ccc(OCc3ccccc3)cc2C1=O` the figure was 140 to 141 °C.
`C=CCONC(CCC)=C1C(=O)C=C(C)OC1=O` gave a melting point of 52 to 54 °C.
`Fc1ccc(-c2ncn(CCCCl)c2-c2ccncc2)cc1` yielded a melting point of 139 to 140 °C.
`COC(=O)c1cc(NC(C)=O)c(F)c(-c2ccc(Cl)c(OC)c2F)n1`: the melting point lay within 189 to 191 °C.
For the compound `Cn1ncc2c1-c1c(Oc3ccc(N)cc3)sc(C(N)=O)c1CC2`, the melting point was 214 to 216 °C.
As to `Cc1[nH]c(C(=O)Nc2ccc3c(c2)OCCO3)c(C)c1-c1nc2ccc(C(=O)c3ccccc3)cc2[nH]1`, the melting point was 145 to 147 °C.
Regarding `CCc1cccc(C)c1NC(=O)C(C)N` (stereo not drawn), the melting point fell in the range of 68.5 to 70 °C.
The compound `CC(=O)Nc1ccc(-c2ccc(C(C)=O)o2)cc1` gave a melting point of 214 to 215 °C.
For the compound `CCCOc1ccccc1-c1nc2cc3ncn(Cc4ccc(Cl)cc4)c3cc2c(=O)[nH]1`, the melting point lay in the range of 136 to 137 °C.
